In patent EP0527889B1, “QUINOLIZINONE TYPE COMPOUNDS” (priority 1990, dated 1991):
≈ marks a conversion by molar mass, not a printed value. Counter-ions that a name gives are not always drawn.

Assays:
Test in all cases: In vitro antibacterial activity, MIC by agar dilution
Assay type in all cases: cell-based
Conditions in all cases: BHI agar, 35-37°C, 20-24 hours, unit assumed
[1] = system: Acinetobacter calcoaceticus CMX 669
Protocol: (§1) Each plate was inoculated with 1:100 (or 1:10 for slow growing strains, primarily Micrococcus and Streptococcus) dilutions of up to 32 different microorganisms, using a Steers replicator block calibrated to deliver approximately 10^4 colony forming units (CFUs). The inoculated plates were incubated at from about 35°C to about 37°C for approximately 20-24 hours. In addition, a control plate using BHI agar containing no test compound was prepared and incubated at the beginning and at the end of each test. Ciprofloxacin was used as the control antibiotic.
(§2) The MIC was defined as the lowest concentration of test compound yielding no growth (a slight haze or sparsely isolated colonies at the inoculum spot) as compared to the growth control containing no test compound.

[2] = system: Enterobacter aerogenes ATCC 13048
Protocol: as §1, §2

[3] = system: Enterococcus faecium ATCC 8043
Protocol: as §1, §2

[4] = system: Escherichia coli DC-2
Protocol: as §1, §2

[5] = system: Escherichia coli H560
Protocol: as §1, §2

[6] = system: Escherichia coli JUHL
Protocol: as §1, §2

[7] = system: Escherichia coli KNK 437
Protocol: as §1, §2

[8] = system: Escherichia coli SS
Protocol: as §1, §2

[9] = system: Klebsiella pneumoniae ATCC 8045
Protocol: as §1, §2

[10] = system: Micrococcus luteus ATCC 4698
Protocol: as §1, §2

[11] = system: Micrococcus luteus ATCC 9341
Protocol: as §1, §2

[12] = system: Providencia stuartii CMX 640
Protocol: as §1, §2

[13] = system: Pseudomonas aeruginosa 2862
Protocol: as §1, §2

[14] = system: Pseudomonas aeruginosa 5263
Protocol: as §1, §2

[15] = system: Pseudomonas aeruginosa A5007
Protocol: as §1, §2

[16] = system: Pseudomonas aeruginosa BMH10
Protocol: as §1, §2

[17] = system: Pseudomonas aeruginosa K799/61
Protocol: as §1, §2

[18] = system: Pseudomonas aeruginosa K799/WT
Protocol: as §1, §2

[19] = system: Pseudomonas cepacia 296I
Protocol: as §1, §2

[20] = system: Staphylococcus aureus 1775
Protocol: as §1, §2

[21] = system: Staphylococcus aureus 642A
Protocol: as §1, §2

[22] = system: Staphylococcus aureus A-5278
Protocol: as §1, §2

[23] = system: Staphylococcus aureus A5177
Protocol: as §1, §2

[24] = system: Staphylococcus aureus ATCC 6538P
Protocol: as §1, §2

[25] = system: Staphylococcus aureus CMX 553
Protocol: as §1, §2

[26] = system: Staphylococcus aureus NCTC 10649
Protocol: as §1, §2

[27] = system: Staphylococcus epidermidis 3519
Protocol: as §1, §2

[28] = system: Streptococcus agalactaciae CMX 508
Protocol: as §1, §2

[29] = system: Streptococcus bovis A5169
Protocol: as §1, §2

[30] = system: Streptococcus pyrogenes 2548 INDUC
Protocol: as §1, §2

[31] = system: Streptococcus pyrogenes CONST
Protocol: as §1, §2

[32] = system: Streptococcus pyrogenes EES61
Protocol: as §1, §2

Structure (SMILES)	MIC values [1]	MIC values [3]	MIC values [4]	MIC values [5]	MIC values [6]	MIC values [7]	MIC values [8]	MIC values [10]	MIC values [11]	MIC values [14]	MIC values [16]	MIC values [17]	MIC values [18]	MIC values [19]	MIC values [23]	MIC values [24]	MIC values [25]	MIC values [26]	MIC values [27]	MIC values [28]	also measured
NC1CCN(c2nc3c(-c4c(F)c(F)c(F)c(F)c4F)cc(C(=O)O)c(=O)n3cc2F)C1 (stereo not drawn) [Example 172, 2-(3-Aminopyrrolidin-1-yl)-3-fluoro-9-(2,3,4,5,6-pentafluorophenyl)-6H-6-oxopyrido[1,2-a]pyrimidine-7-carboxylic acid hydrochloride salt]	25 µg/mL	> 100 µg/mL	> 100 µg/mL	6.2 µg/mL	6.2 µg/mL	> 100 µg/mL	0.39 µg/mL	> 100 µg/mL	> 100 µg/mL	> 100 µg/mL	50 µg/mL	6.2 µg/mL	100 µg/mL	> 100 µg/mL	100 µg/mL	50 µg/mL	> 100 µg/mL	50 µg/mL	50 µg/mL	> 100 µg/mL	MIC values [2]: 6.2 µg/mL; MIC values [9]: 3.1 µg/mL; MIC values [12]: > 100 µg/mL; MIC values [13]: > 100 µg/mL; MIC values [15]: 50 µg/mL; MIC values [20]: > 100 µg/mL; MIC values [21]: 100 µg/mL; MIC values [22]: 50 µg/mL; MIC values [29]: > 100 µg/mL; MIC values [30]: > 100 µg/mL; MIC values [31]: > 100 µg/mL; MIC values [32]: > 100 µg/mL
NC1CCN(c2nc3c(C4CC4)cc(C(=O)O)c(=O)n3cc2F)C1 (stereo not drawn) [Example 157, 2-(3-Aminopyrrolidin-1-yl)-9-cyclopropyl-3-fluoro-6H-6-oxo-pyrido[1,2-a]pyrimidine-7-carboxylic acid hydrochloride salt]	0.2 µg/mL	1.56 µg/mL	0.39 µg/mL	0.02 µg/mL	0.02 µg/mL	0.39 µg/mL	0.01 µg/mL	1.56 µg/mL	3.1 µg/mL	50 µg/mL	0.2 µg/mL	0.05 µg/mL	0.2 µg/mL	3.1 µg/mL	0.39 µg/mL	0.2 µg/mL	0.39 µg/mL	0.2 µg/mL	0.39 µg/mL	1.56 µg/mL	MIC values ([2]; hydrochloride salt): 0.02 µg/mL; MIC values ([9]; hydrochloride salt): 0.02 µg/mL; MIC values ([12]; hydrochloride salt): 1.56 µg/mL; MIC values ([13]; hydrochloride salt): 25 µg/mL; MIC values ([15]; hydrochloride salt): 0.39 µg/mL; MIC values ([20]; hydrochloride salt): 25 µg/mL; MIC values ([21]; hydrochloride salt): 0.39 µg/mL; MIC values ([22]; hydrochloride salt): 0.39 µg/mL; MIC values ([29]; hydrochloride salt): 3.1 µg/mL; MIC values ([30]; hydrochloride salt): 0.39 µg/mL; MIC values [31]: 1.56 µg/mL; MIC values [32]: 1.56 µg/mL
O=C(O)c1cn(C2CC2)c2cc(N3CCNCC3)c(F)cc2c1=O [Cntl, Ciprofloxacin, reference compound]	0.39 µg/mL (≈ 1.18 µM)	0.39 µg/mL (≈ 1.18 µM)	0.2 µg/mL (≈ 0.604 µM)	0.01 µg/mL (≈ 0.0302 µM)	0.01 µg/mL (≈ 0.0302 µM)	0.2 µg/mL (≈ 0.604 µM)	0.005 µg/mL (≈ 0.0151 µM)	0.78 µg/mL (≈ 2.35 µM)	1.56 µg/mL (≈ 4.71 µM)	12.5 µg/mL (≈ 37.7 µM)	0.1 µg/mL (≈ 0.302 µM)	0.02 µg/mL (≈ 0.0604 µM)	0.1 µg/mL (≈ 0.302 µM)	3.1 µg/mL (≈ 9.36 µM)	0.39 µg/mL (≈ 1.18 µM)	0.2 µg/mL (≈ 0.604 µM)	0.78 µg/mL (≈ 2.35 µM)	0.39 µg/mL (≈ 1.18 µM)	0.39 µg/mL (≈ 1.18 µM)	0.39 µg/mL (≈ 1.18 µM)	MIC values [2]: 0.05 µg/mL (≈ 0.151 µM); MIC values [9]: 0.02 µg/mL (≈ 0.0604 µM); MIC values [12]: 0.78 µg/mL (≈ 2.35 µM); MIC values [13]: 25 µg/mL (≈ 75.4 µM); MIC values [15]: 0.1 µg/mL (≈ 0.302 µM); MIC values [20]: > 100 µg/mL; MIC values [21]: 0.39 µg/mL (≈ 1.18 µM); MIC values [22]: 0.39 µg/mL (≈ 1.18 µM); MIC values [29]: 1.56 µg/mL (≈ 4.71 µM); MIC values [30]: 0.39 µg/mL (≈ 1.18 µM); MIC values [31]: 0.78 µg/mL (≈ 2.35 µM); MIC values [32]: 0.39 µg/mL (≈ 1.18 µM)
